“And” between values parts separate entries of the source, which are not always exact repeats. Equal values may be shown once.
Test system: 997537-175-T-J1-PDC complex spheroid viability
Experiment: Anticancer human tumor 997537-175-T-J1-PDC patient-derived colon adenocarcinoma cell line growth inhibition [GQUAD]
Conditions: for viability, T/C: stronger effect = lower value
Source text: DNA G-quadruplex Stabilizer Agents in Combinations in Complex Spheroids
A high-throughput screen of multi-cell type tumor spheroids was designed to identify active combinations of DNA G-quadruplex stabilizer agents and targeted small molecules. Complex spheroids include a stromal component modeled by human endothelial cells (HUVEC) and fibroblasts modeled by human mesenchymal stem cells (MSCs). The concentration ranges selected for each drug and investigational agent were based upon clinically achievable concentrations if the clinical Cmax of the agent was known.
Compounds. The drugs and investigational agents: pidnarulex (CX-5461; NSC782164), APTO-253 (NSC789042), BRACO-19 (NSC847499), peposertib (NSC802822), ceralasertib (NSC780249), elimusertib (NSC800525), camonsertib (NSC841442), AZD-1390 (NSC803789), olaparib (NSC753686), talazoparib (NSC767125), ART-558 (NSC835418), sotorasib (NSC818433), MRTX-1133 (NSC836407), SN-38 (NSC673596), topotecan (NSC609699), etoposide (NSC141540), doxorubicin (NSC123127), gemcitabine (NSC613327), 5-fluorouracil (NSC19893), paclitaxel (NSC125973), vemurafenib (NSC761431), panobinostat (NSC761190), R-306465 (JNJ-16241199; NSC773264), adavosertib (NSC754352), TP-3654 (NSC805149), carboplatin (NSC241240), KSQ-4279 (NSC840948), and staurosporine (NSC755774) were obtained from the National Cancer Institute (NCI) Developmental Therapeutics Program Chemical Repository (34). The FDA-approved anticancer drug set is available from the NCI Developmental Therapeutics Program. […] The stock solutions were prepared in dimethyl sulfoxide (DMSO, Sigma-Aldrich, St. Louis, MO, cat. D2650) at 800-fold the tested concentration and stored at -70 degrees C prior to their use. All drugs and investigational agents were tested over a range starting from a high concentration at or near the clinical Cmax and decreasing in half-log increments. If the clinical Cmax for an agent had not been determined, the highest concentration tested was 10 microM.
2.3 Cell Culture. All cells were maintained in an incubator at 37 degrees C and 5% CO2 with 95% humidity. The PDC lines were cultured according to standard operating procedures established by the NCI PDMR. All PDCs were thawed and cultured in Matrigel-coated flasks prepared with a working solution of 1X Ham's F-12 nutrient mix, without supplementation (Invitrogen, cat. 11765054), 100 U/mL penicillin-streptomycin (Invitrogen, cat. 15140122), and 2.5% Matrigel (Corning Inc., cat. 354248) for the first three passages. The 857933-349-R-J2-PDC line was cultured in 6C/Colon 1B media, which includes advanced DMEM/F-12 (Thermo Fisher Scientific, cat. 12634028), 10 mM HEPES (Thermo Fisher Scientific, cat. 15630080), 1X GlutaMAX supplement (Thermo Fisher Scientific, cat. 35050061), 0.1 mg/mL primocin (InvivoGen, cat. ant-pm-2), 10% defined fetal bovine serum, heat inactivated (HyClone Laboratories Inc., cat. SH30070.03HI), 50% L-WRN conditioned media (ATCC, cat. CRL-3276), 1.25 mM N-Acetyl-L-cysteine (Sigma-Aldrich, cat. A9165), 10 mM nicotinamide (Sigma-Aldrich, cat. N0636), 1X B-27 supplement (Thermo Fisher Scientific, cat. 17504044), 1X N-2 supplement (Thermo Fisher Scientific, cat. 17502048), 10 microM Y-27632 dihydrochloride (Tocris Bioscience, cat. 1254), and 50 ng/mL human EGF recombinant protein (Thermo Fisher Scientific, cat. PHG0311). The 485176-168-R4-J1-PDC line was cultured in Panc media, which includes all 6C/Colon 1B media components plus 100 ng/mL human FGF-10 (Thermo Fisher Scientific, cat. 100-26), 500 nM SB-431542 (Selleckchem, cat. S1067), and gastrin (Tocris, cat. 3006).
[…]

[1] = curve of first compound, second compound 0.0316 µM
[2] = curve of first compound, second compound 0.1 µM
[3] = curve of first compound, second compound 0.316 µM
[4] = curve of first compound, second compound 1 µM
[5] = curve of first compound, second compound 3.16 µM
[6] = curve of first compound, second compound 10 µM
[7] = second compound 0.0316 µM, first compound 0.000999 µM
[8] = second compound 0.0316 µM, first compound 0.00316 µM
[9] = second compound 0.0316 µM, first compound 0.00999 µM
[10] = second compound 0.0316 µM, first compound 0.0316 µM
[11] = second compound 0.0316 µM, first compound 0.0999 µM
[12] = second compound 0.0316 µM, first compound 0.316 µM
[13] = second compound 0.1 µM, first compound 0.000999 µM
[14] = second compound 0.1 µM, first compound 0.00316 µM
[15] = second compound 0.1 µM, first compound 0.00999 µM
[16] = second compound 0.1 µM, first compound 0.0316 µM
[17] = second compound 0.1 µM, first compound 0.0999 µM
[18] = second compound 0.1 µM, first compound 0.316 µM
[19] = second compound 0.316 µM, first compound 0.000999 µM
[20] = second compound 0.316 µM, first compound 0.00316 µM
[21] = second compound 0.316 µM, first compound 0.00999 µM
[22] = second compound 0.316 µM, first compound 0.0316 µM
[23] = second compound 0.316 µM, first compound 0.0999 µM
[24] = second compound 0.316 µM, first compound 0.316 µM
[25] = second compound 1 µM, first compound 0.000999 µM
[26] = second compound 1 µM, first compound 0.00316 µM
[27] = second compound 1 µM, first compound 0.00999 µM
[28] = second compound 1 µM, first compound 0.0316 µM
[29] = second compound 1 µM, first compound 0.0999 µM
[30] = second compound 1 µM, first compound 0.316 µM
[31] = second compound 3.16 µM, first compound 0.000999 µM
[32] = second compound 3.16 µM, first compound 0.00316 µM
[33] = second compound 3.16 µM, first compound 0.00999 µM
[34] = second compound 3.16 µM, first compound 0.0316 µM
[35] = second compound 3.16 µM, first compound 0.0999 µM
[36] = second compound 3.16 µM, first compound 0.316 µM
[37] = second compound 10 µM, first compound 0.000999 µM
[38] = second compound 10 µM, first compound 0.00316 µM
[39] = second compound 10 µM, first compound 0.00999 µM
[40] = second compound 10 µM, first compound 0.0316 µM
[41] = second compound 10 µM, first compound 0.0999 µM
[42] = second compound 10 µM, first compound 0.316 µM
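Also: spheroids exposed to the agents for 7 days.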
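For viability, T/C in this document: 100% = DMSO vehicle control viability.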

## CCc1c2c(nc3ccc(O)cc13)-c1cc3c(c(=O)n1C2)COC(=O)[C@]3(O)CC + Cc1[nH]c2ccc(F)cc2c1-c1nc2c3cccnc3c3ncccc3c2[nH]1
[1]
  IC50: 11.9 nM
[2]
  IC50: 9.18 nM
[3]
  IC50: 11.9 nM
[4]
  IC50: 8.52 nM
[5]
  IC50: 10.7 nM
[6]
  IC50: 6.48 nM
[7]
  viability, T/C: 84.3%
[8]
  viability, T/C: 94.4%
[9]
  viability, T/C: 54.2%
[10]
  viability, T/C: 16.6%
[11]
  viability, T/C: 7.8%
[12]
  viability, T/C: 2.95%
[13]
  viability, T/C: 75%
[14]
  viability, T/C: 74.8%
[15]
  viability, T/C: 45.2%
[16]
  viability, T/C: 22%
[17]
  viability, T/C: 5.55%
[18]
  viability, T/C: 2.19%
[19]
  viability, T/C: 90.5%
[20]
  viability, T/C: 94.3%
[21]
  viability, T/C: 53.3%
[22]
  viability, T/C: 19.2%
[23]
  viability, T/C: 7.44%
[24]
  viability, T/C: 2.71%
[25]
  viability, T/C: 81.9%
[26]
  viability, T/C: 76.6%
[27]
  viability, T/C: 44.4%
[28]
  viability, T/C: 19.6%
[29]
  viability, T/C: 6.99%
[30]
  viability, T/C: 7.31%
[31]
  viability, T/C: 69%
[32]
  viability, T/C: 56.6%
[33]
  viability, T/C: 54%
[34]
  viability, T/C: 22.1%
[35]
  viability, T/C: 7.42%
[36]
  viability, T/C: 2.8%
[37]
  viability, T/C: 69.2%
[38]
  viability, T/C: 52.8%
[39]
  viability, T/C: 48%
[40]
  viability, T/C: 17.1%
[41]
  viability, T/C: 3.72%
[42]
  viability, T/C: 2.19%

## COc1ccc([C@@H](O)c2cc(-c3ncnc4cc(N5CCOCC5)ccc34)c(F)cc2Cl)nn1
Compound 0.0316 µM
  viability, T/C: 92.9% and 91.3% and 86%
Compound 0.1 µM
  viability, T/C: 90.2% and 89.7% and 104%
Compound 0.316 µM
  viability, T/C: 94.4% and 88.5% and 89.3%
Compound 1 µM
  viability, T/C: 101% and 83.3% and 91.5%
Compound 3.16 µM
  viability, T/C: 82.6% and 73.8% and 58.5%
Compound 10 µM
  viability, T/C: 65.1% and 78.9% and 67.7%
Curve of compound
  IC50: > 10000 nM

## Cc1[nH]c2ccccc2c1CCNCc1ccc(/C=C/C(=O)NO)cc1 + Cc1[nH]c2ccc(F)cc2c1-c1nc2c3cccnc3c3ncccc3c2[nH]1
[1]
  IC50: > 316 nM
[2]
  IC50: > 316 nM
[3]
  IC50: > 316 nM
[4]
  IC50: > 316 nM
[5]
  IC50: > 316 nM
[6]
  IC50: > 316 nM
[7]
  viability, T/C: 100%
[8]
  viability, T/C: 103%
[9]
  viability, T/C: 100%
[10]
  viability, T/C: 106%
[11]
  viability, T/C: 88.8%
[12]
  viability, T/C: 93.2%
[13]
  viability, T/C: 89.3%
[14]
  viability, T/C: 108%
[15]
  viability, T/C: 92.8%
[16]
  viability, T/C: 104%
[17]
  viability, T/C: 93.4%
[18]
  viability, T/C: 95.5%
[19]
  viability, T/C: 92.1%
[20]
  viability, T/C: 111%
[21]
  viability, T/C: 92.4%
[22]
  viability, T/C: 91%
[23]
  viability, T/C: 105%
[24]
  viability, T/C: 97.1%
[25]
  viability, T/C: 98.4%
[26]
  viability, T/C: 95.1%
[27]
  viability, T/C: 101%
[28]
  viability, T/C: 90.6%
[29]
  viability, T/C: 90.5%
[30]
  viability, T/C: 84.8%
[31]
  viability, T/C: 93.2%
[32]
  viability, T/C: 84%
[33]
  viability, T/C: 82.1%
[34]
  viability, T/C: 96.3%
[35]
  viability, T/C: 77.6%
[36]
  viability, T/C: 80.7%
[37]
  viability, T/C: 83.2%
[38]
  viability, T/C: 88.7%
[39]
  viability, T/C: 73.2%
[40]
  viability, T/C: 78.6%
[41]
  viability, T/C: 84.6%
[42]
  viability, T/C: 69.5%
